According to the NIST ThermoML archive (doi:10.1016/j.jct.2012.07.018):
± gives the expanded uncertainty stated by the source.

Assays:
[1] = molar heat capacity at constant pressure; settings: Liquid, Flow calorimetry
[2] = molar heat capacity at constant pressure; xn = mol fraction of the nth substance listed; settings: 313.15 K, Liquid, Flow calorimetry

C1CCCCC1 [cyclohexane]
molar heat capacity at constant pressure [J/K/mol], [1]
Settings	100 kPa	5000 kPa	10000 kPa	15000 kPa	20000 kPa
293.15 K	154.1 ± 1.6	152 ± 1.5	151.1 ± 1.5	149.9 ± 1.5	148.7 ± 1.5
313.15 K	162.7 ± 1.6	160.7 ± 1.6	158.8 ± 1.6	157.3 ± 1.6	155.9 ± 1.6
333.15 K	171 ± 1.7	169.1 ± 1.7	166.8 ± 1.7	164.9 ± 1.7	163.4 ± 1.7

C1CCCCC1 [cyclohexane] + C=CCCCC
[2], x1 = 1
Settings	molar heat capacity at constant pressure [J/K/mol]
100 kPa	162.7 ± 1.6
5000 kPa	160.7 ± 1.6
10000 kPa	158.8 ± 1.6
15000 kPa	157.3 ± 1.6
20000 kPa	155.9 ± 1.6

C1CCCCC1 [cyclohexane] + CCO
molar heat capacity at constant pressure [J/K/mol], [2]
Settings	x1 = 0.1	x1 = 0.1999	x1 = 0.2999	x1 = 0.4	x1 = 0.5002	x1 = 0.6	x1 = 0.7002	x1 = 0.8	x1 = 0.8999	x1 = 1
100 kPa	127.8 ± 1.3	134.2 ± 1.4	140.2 ± 1.4	146.9 ± 1.5	152.7 ± 1.5	158.2 ± 1.6	163.3 ± 1.7	167.6 ± 1.7	169.9 ± 1.7	162.7 ± 1.6
5000 kPa	126.5 ± 1.3	132.9 ± 1.3	138.8 ± 1.4	145.2 ± 1.5	151 ± 1.5	155.9 ± 1.6	161 ± 1.6	165.2 ± 1.7	167.3 ± 1.7	160.7 ± 1.6
10000 kPa	125 ± 1.3	131 ± 1.3	137.1 ± 1.4	143.1 ± 1.4	149 ± 1.5	154 ± 1.6	159 ± 1.6	163.1 ± 1.6	165.5 ± 1.7	158.8 ± 1.6
15000 kPa	123.7 ± 1.3	130.2 ± 1.3	135.7 ± 1.4	141.3 ± 1.4	147 ± 1.5	152.9 ± 1.5	157.6 ± 1.6	161.3 ± 1.6	163.3 ± 1.7	157.3 ± 1.6
20000 kPa	122.8 ± 1.2	129.5 ± 1.3	134.9 ± 1.4	140.7 ± 1.4	146.6 ± 1.5	149 ± 1.5	156.3 ± 1.6	160.5 ± 1.6	162.5 ± 1.6	155.9 ± 1.6

CCO [ethanol]
[1], 313.15 K
Settings	molar heat capacity at constant pressure [J/K/mol]
100 kPa	119.2 ± 1.2
5000 kPa	118 ± 1.2
10000 kPa	116.8 ± 1.2
15000 kPa	115.5 ± 1.2
20000 kPa	114.9 ± 1.2

CCO [ethanol] + C1CCCCC1
[2], x2 = 0
Settings	molar heat capacity at constant pressure [J/K/mol]
100 kPa	119.2 ± 1.2
5000 kPa	118 ± 1.2
10000 kPa	116.8 ± 1.2
15000 kPa	115.5 ± 1.2
20000 kPa	114.9 ± 1.2

CCO [ethanol] + C=CCCCC
[2], x2 = 0
Settings	molar heat capacity at constant pressure [J/K/mol]
100 kPa	119.2 ± 1.2
5000 kPa	118 ± 1.2
10000 kPa	116.8 ± 1.2
15000 kPa	115.5 ± 1.2
20000 kPa	114.9 ± 1.2

C=CCCCC [hex-1-ene]
molar heat capacity at constant pressure [J/K/mol], [1]
Settings	100 kPa	5000 kPa	10000 kPa	15000 kPa	20000 kPa
273.15 K	177.2 ± 1.8	170.8 ± 1.7	168.3 ± 1.7	166.3 ± 1.7	165.3 ± 1.7
293.15 K	184.8 ± 1.9	178.6 ± 1.8	175.1 ± 1.8	172.6 ± 1.7	172.1 ± 1.7
313.15 K	190.7 ± 1.9	186.6 ± 1.9	182.9 ± 1.8	180.4 ± 1.8	178.2 ± 1.8

C=CCCCC [hex-1-ene] + C1CCCCC1
molar heat capacity at constant pressure [J/K/mol], [2]
Settings	x2 = 0	x2 = 0.1	x2 = 0.2	x2 = 0.2999	x2 = 0.4001	x2 = 0.5	x2 = 0.6001	x2 = 0.7	x2 = 0.8	x2 = 0.9
100 kPa	190.7 ± 1.9	187.6 ± 1.9	184.3 ± 1.9	181.3 ± 1.8	178 ± 1.8	175.2 ± 1.8	172.5 ± 1.7	169.7 ± 1.7	167.2 ± 1.7	165.1 ± 1.7
5000 kPa	186.6 ± 1.9	181.3 ± 1.8	180.5 ± 1.8	176.8 ± 1.8	174.2 ± 1.8	171.6 ± 1.7	169.6 ± 1.7	167.3 ± 1.7	163.8 ± 1.7	162.2 ± 1.6
10000 kPa	182.9 ± 1.8	179.7 ± 1.8	176.9 ± 1.8	173.9 ± 1.8	172.2 ± 1.7	169.1 ± 1.7	167 ± 1.7	164.9 ± 1.7	162.3 ± 1.6	160 ± 1.6
15000 kPa	180.4 ± 1.8	177.2 ± 1.8	174.8 ± 1.8	171.7 ± 1.7	169.9 ± 1.7	167.6 ± 1.7	165.4 ± 1.7	163.3 ± 1.7	160.2 ± 1.6	158.1 ± 1.6
20000 kPa	178.2 ± 1.8	175.4 ± 1.8	173.5 ± 1.8	170.8 ± 1.7	168.6 ± 1.7	166.2 ± 1.7	163.9 ± 1.7	162.1 ± 1.6	159.6 ± 1.6	157.9 ± 1.6

C=CCCCC [hex-1-ene] + CCO
molar heat capacity at constant pressure [J/K/mol], [2]
Settings	x1 = 0.0999	x1 = 0.2	x1 = 0.3	x1 = 0.3998	x1 = 0.4998	x1 = 0.6	x1 = 0.7001	x1 = 0.8003	x1 = 0.9003	x1 = 1
100 kPa	130.7 ± 1.3	142 ± 1.4	152 ± 1.5	161.5 ± 1.6	171.8 ± 1.7	–	186.4 ± 1.9	192.3 ± 1.9	197 ± 2	190.7 ± 1.9
5000 kPa	129 ± 1.3	139.8 ± 1.4	149.7 ± 1.5	158.9 ± 1.6	167.9 ± 1.7	175.4 ± 1.8	182.2 ± 1.8	188.7 ± 1.9	191.2 ± 1.9	186.6 ± 1.9
10000 kPa	127.3 ± 1.3	138 ± 1.4	147.2 ± 1.5	156.2 ± 1.6	165.1 ± 1.7	172.6 ± 1.7	179 ± 1.8	184.7 ± 1.9	188.5 ± 1.9	182.9 ± 1.8
15000 kPa	126 ± 1.3	136.6 ± 1.4	145.7 ± 1.5	153.7 ± 1.6	163.1 ± 1.6	170.2 ± 1.7	176.3 ± 1.8	181.6 ± 1.8	185.1 ± 1.9	180.4 ± 1.8
20000 kPa	125 ± 1.3	135.4 ± 1.4	144.3 ± 1.5	152.9 ± 1.5	161.4 ± 1.6	168.4 ± 1.7	174.7 ± 1.8	178.5 ± 1.8	183.4 ± 1.9	178.2 ± 1.8
